Measured values reported in patent US11523980B2, “Use of a peptide for the treatment of epiderm” (Sederma, priority 2018, dated 2022).
Marks after values point to notes of the source that are not given here. Residues, ends and D or L forms follow the SMILES beside them. *: point of attachment. Palmitoyl = CCCCCCCCCCCCCCCC(=O)*

Key:
desmoglein = assay: Desmoglein fluorescence immunohistology on abdominal skin explant; format: cell-based, human; details: cream containing 6 ppm applied daily, 6 days, vs placebo cream
Excerpt: (§1) Desmoglein was searched on sections of abdominal skin (person) who had received a cream containing 6 ppm of the peptide according to the invention or the placebo cream. After 6 days (cream applied daily), the skins were frozen and sectioned to look for desmoglein using antibodies against this protein (fluorescence immunohistology). Photos were captured using a fluorescence microscope and the images analyzed using suitable software. The results were compared to those of the placebo cream.

[1] = system: normal human keratinocytes (NHK); assay: DNA-Array, mRNA expression in confluent keratinocytes; format: cell-based; details: 4 ppm
Method: The following in vitro tests were performed on epidermal cells: normal human keratinocytes (NHK) or on skin explant or on reconstructed skin. The peptide according to the invention was tested, in solution in an inert solvent (ethanol), at recommended concentrations of use on the skin. The peptide according to the invention was contacted for 6 or 24 h with confluent KHN (n=3). Then the KHN mats were rinsed and the cells were crushed to extract their mRNAs. These mRNAs are then converted into small DNA sequences which are analyzed after deposition on DNA chips and amplification by a method similar to qRT-PCR (Real-Time Quantitative Reverse Transcription Polymerase Chain Reaction). The mRNA variations due to the peptide are compared to the control case (peptide solvent).

confluent keratinocytes = assay: Intracellular calcium mobilization in confluent keratinocytes (fluorescent calcium probe); format: cell-based, human; details: 6 or 15 ppm; visible after about 30 minutes of contact
Method: Confluent keratinocytes were loaded with a specific calcium probe. This molecule becomes very fluorescent in the presence of intracellular free calcium. The appearance of fluorescence under the microscope was monitored. The cells, once loaded, were rinsed and then received the peptide according to the invention at 6 or 15 ppm or a positive control (bradykinin).
A study of the variances and a t test of Student were carried out in order to judge the significance of the results (n=3 for each condition).

filaggrin gene = assay: qRT-PCR analysis of filaggrin gene expression; format: cell-based, human
Excerpt: The genes of loricrin, filaggrin and filaggrin 2, three proteins involved in the building of the corneocyte or the moisturisation of the Stratum corneum, were statistically better expressed than in the solvent control (p<0.01). […] 3.66 times compared to control (p<0.01).

[2] = system: α-crystallin protein in reconstructed skin epidermis; assay: α-crystallin immunohistology on reconstructed skins; format: cell-based, human; details: for α-cristallin % of variation/control: reconstructed skin epidermis, 24 hours then following 18 days
Method: Normal human fibroblasts were seeded in a matrix. A few days after keratinocytes were deposited on this equivalent dermis to form a uniform layer of cells. At this stage the whole was passed to an air-liquid interface (emersion) so as to form a pluristratified epidermis. After 21 days (approximately), a mature skin equivalent was obtained (with an epidermis comprising the stratum corneum).
On the eve of the emergence phase, the layer of confluent human keratinocytes of these skins received the peptide according to the invention for 24 hours and then for the following 18 days (period of formation of the epidermis). Cryo-sections (7 μm) were made and the α-crystallin was labeled with fluorescent antibodies (immunohistology). The fluorescence was analyzed in photos, an equivalent surface was analyzed for all the photographs (n=51-59). Student's t test was performed.

transglutaminases = assay: Transglutaminase activity (fluorescent dansylcadaverine) in NHK; format: cell-based, human; details: contact up to 21 days
Method: (§2) Finally, the influence of the peptide according to the invention on the activity of transglutaminases and on the expression of the transglutaminase-5 gene was evaluated.
For this, confluent NHKs were brought into contact with the peptide according to the invention up to 21 days. Transglutaminase activity was assessed using a protocol using fluorescent dansylcadaverine which is bound to Stratum corneum proteins by these enzymes. An analysis of the fluorescence was performed, and the results compared to the solvent control.
(§3) A quantification of the number of cells was carried out in parallel for the 4 tests described in this part, so as to reduce the results to the number of cells.

Lnc-RNA ANCR = Lnc-RNA ANCR expression (qRT-PCR) in confluent keratinocytes; format: cell-based, human; details: 24 h
Method: In this test confluent keratinocytes were contacted with the peptide according to the invention for 24 hours, then the cells were rinsed, ground and their RNAs were extracted, converted into DNA and then analyzed by qRT-PCR.
A study of the variances and a Student's t-test were carried out in order to judge the significance of the results (n=4 for each condition).

NHKs exposed to UVB = assay: Secretome of pro-inflammatory mediators by NHKs exposed to UVB (ELISA); format: cell-based, human; details: NHK + UVB
Method: To test the active, keratinocytes were cultured under mild stress conditions (application of UVB radiation) so as to mimic experimental micro-inflammation of the skin. In this situation a significant decrease in their secretome of inflammation mediators will be interpreted in the sense of a repairing and protective action of the skin.
NHKs in culture and at confluence were brought into contact with the peptide according to the invention (or its solvent) for 24 hours in a medium allowing their survival, then the mats were irradiated with UVB in a physiological buffer and placed back into contact with products to be tested for 24 hours. At the end of this incubation, the culture media were assayed by ELISA in order to know the quantities of pro-inflammatory mediators produced by these cells in response to irradiation. The results were compared with solvent control +/−irradiation. A cellular respiration test was conducted to evaluate the number of cells and standardize the results.
(§4) A study of the variances and a Student's t test were carried out in order to judge the significance of the results.

[3] = system: hyaluronic acid secretion in NHK; assay: Hyaluronic acid secretion by keratinocytes (ELISA); format: cell-based, human; details: for Hyaluronic acid % of variatio/control: ELISA
Method: The moisturizing aspect was evaluated by the assay of hyaluronic acid produced by keratinocytes by an ELISA method.
as §3

transglutaminase-5 gene = assay: Transglutaminase-5 gene expression (qRT-PCR) in KHN; format: cell-based, human; details: 72 hours of contact
Method: as §2
With regard to transglutaminase-5, a qRT-PCR was performed after 72 hours of contact between the KHN and the peptide according to the invention.
as §3

[4] = system: normal human keratinocytes (NHK); assay: Immunocytochemistry of differentiation markers and ceramides in NHK; format: cell-based; details: 2 ppm, 7 days
Method: Confluent NHKs (n=3) were cultured as previously for 7 days in the presence or absence (control) of the peptide according to the invention, then immunocytochemistry markings were carried out using antibodies directed against proteins characteristic of the maturation of the epidermis: involucrin, loricrin and filaggrin, or of moisturizing: filaggrin, as well as ceramides (structuring elements of the Stratum corneum).
as §3

KLK5 (kallikrein 5) = assay: KLK5 fluorescence immunohistology on abdominal skin explant; format: cell-based, human; details: cream containing 6 ppm applied daily, 6 days, vs placebo cream
Excerpt: as §1
The same sections as those used for desmoglein, as well as the same method (fluorescence immunohistology) were used to analyze and quantify the effect of the peptide according to the invention on this desquamation marker.

[5] = system: normal human keratinocytes (NHK); assay: LC-MS/MS study of proteins in NHK culture (7 days); format: cell-based; details: 4 ppm
Excerpt: The same culture protocol as for the DNA-Array (1.1/above) was used but with a longer culture time (7 days), the protein productions taking longer to be detected with this LC-MS/MS method. The NHK culture medium (n=3) was changed every 3 days. At the end of this contact, the cells were lysed so as to extract the proteins and to analyze them in the form of crushed material by a method associating the action of a protease on the crushed material, the separation of the fragments by coupled liquid chromatography to mass spectrometry, then the identification and concentration of pre-existing proteins according to the nature and quantity of fragments obtained (LC-MS/MS). To conduct LC-MS/MS analysis on equivalent amounts of protein, the protein concentration was measured on the crushed material.
as §4

CCCCCCCCCCCCCCCC(=O)NC(CCCCN)C(=O)NC(C(=O)NC(Cc1ccccc1)C(=O)NC(CCCCN)C(=O)O)C(C)O (stereo not shown) [peptide according to the invention, palmitoyl-lysyl-threonyl-phenylalanyl-lysine] (Palmitoyl-KTFK-OH; configuration not given here)
Desmogleine % of variation/control (desmoglein): +24%; p < 0.01
Toxic effects ([1]; 6 or 24 h contact): No toxic effects were noted.
Increase in production of mRNA coding for TRPC6 compared with the solvent control ([1]; 6 h): 6.05 ×
Variation with respect to the control of expression of gene coding for Filaggrin ([1]; 6 hours contact): ×2.32 *
Variation with respect to the control of expression of gene coding for Filaggrin 2 ([1]; 6 hours contact): ×2.42 *
Variation with respect to the control of expression of gene coding for Loricrin ([1]; 6 hours contact): ×2.97 *
Variation with respect to the control of expression of gene coding for LCE2D ([1]; 24 hours contact): ×1.84 **
Variation with respect to the control of expression of gene coding for LCE3B ([1]; 24 hours contact): ×2.13 **
Variation with respect to the control of expression of gene coding for LCE3C ([1]; 24 hours contact): ×3.25 **
Variation with respect to the control of expression of gene coding for LCE3D ([1]; 24 hours contact): ×2.06 **
Variation with respect to the control of expression of gene coding for LCE3E ([1]; 24 hours contact): ×2.33 **
Variation with respect to the control of expression of gene coding for SPRR2B ([1]; 24 hours contact): ×2.13 **
Variation with respect to the control of expression of gene coding for SPRR2C ([1]; 24 hours contact): ×1.58 **
Intracellular calcium mobilization (visual, fluorescence microscope) (confluent keratinocytes): induces an intracellular calcium mobilization
Increase of filaggrin gene expression compared to control (qRT-PCR) (filaggrin gene; 4 ppm): 2.87 times
Increase of filaggrin gene expression compared to control (qRT-PCR) (filaggrin gene; 6 ppm): 3.66 times
Toxic effects ([2]; 4 and 6 ppm, reconstructed skin): No toxic effects were noted.
α-cristallin % of variation/control ([2]; 4 ppm): +61%; p < 0.01
α-cristallin % of variation/control ([2]; 6 ppm): +164%; p < 0.01
Transglutaminase Intra-KHN activity % of variation/control (transglutaminases; 4 ppm): +45%; p < 0.01
Transglutaminase Intra-KHN activity % of variation/control (transglutaminases; 6 ppm): +107%; p < 0.01
ANCR ratio % of variation/control (Lnc-RNA ANCR; 4 ppm): −27%; p < 0.05
ANCR ratio % of variation/control (Lnc-RNA ANCR; 6 ppm): −34%; p < 0.01
IL-1α % of variation/control (NHKs exposed to UVB; 2 ppm): −15%
IL-1β % of variation/control (NHKs exposed to UVB; 2 ppm): −14%
IL-6 % of variation/control (NHKs exposed to UVB; 2 ppm): −12%
PGE2 % of variation/control (NHKs exposed to UVB; 2 ppm): −31%
TNF-α % of variation/control (NHKs exposed to UVB; 2 ppm): −10%
IL-1α % of variation/control (NHKs exposed to UVB; 4 ppm): −38%
IL-1β % of variation/control (NHKs exposed to UVB; 4 ppm): −43%
IL-6 % of variation/control (NHKs exposed to UVB; 4 ppm): −70%
PGE2 % of variation/control (NHKs exposed to UVB; 4 ppm): −59%
TNF-α % of variation/control (NHKs exposed to UVB; 4 ppm): −56%
IL-1α % of variation/control (NHKs exposed to UVB; 6 ppm): −46%
IL-1β % of variation/control (NHKs exposed to UVB; 6 ppm): −54%
IL-6 % of variation/control (NHKs exposed to UVB; 6 ppm): −84%
PGE2 % of variation/control (NHKs exposed to UVB; 6 ppm): −74%
TNF-α % of variation/control (NHKs exposed to UVB; 6 ppm): −71%
Toxic effects ([3]; 4 and 6 ppm): No toxic effects were noted.
Hyaluronic acid % of variatio/control ([3]; 4 ppm): +40%; p < 0.01
Hyaluronic acid % of variatio/control ([3]; 6 ppm): +91%; p < 0.01
Transglutaminase-5 Gene expression % of variation/control (transglutaminase-5 gene; 4 ppm): +133%; p < 0.01
Transglutaminase-5 Gene expression % of variation/control (transglutaminase-5 gene; 6 ppm): +798%; p < 0.01
Toxic effects [4]: No toxic effects were noted.
Ceramides % of variation/control ([4]; immunofluorescence): +334%;
Filaggrin % of variation/control ([4]; immunofluorescence): +554%;
Involucrin % of variation/control ([4]; immunofluorescence): +60%;
Loricrin % of variation/control ([4]; immunofluorescence): +261%;
KLK5 % of variation/control (KLK5 (kallikrein 5)): +258%; p < 0.01
Toxic effects [5]: No toxic effects were noted.
Variation with respect to the control of protein Filaggrin ([5]; LC-MS/MS): ×4.16
Variation with respect to the control of protein Keratin 10 ([5]; LC-MS/MS): ×1.46
Variation with respect to the control of protein NICE-1 ([5]; LC-MS/MS): ×3.42
Variation with respect to the control of protein SPRR1A ([5]; LC-MS/MS): ×1.55
Variation with respect to the control of protein α-cristallin ([5]; LC-MS/MS): ×2.19
